Where “and” joins values, the source holds several entries; their conditions need not be identical. Equal entries are not always repeated. Where two headings read alike, the source gives them in different places.
Legend:
recombinant BodoCSP4 = recombinant BodoCSP4 (Bradysia odoriphaga, UniProt A0A2S0X9L0); assay: biochemical; format: binding
Protocol: An F-380 fluorescence spectrophotometer (Tianjin, China) was used to measure the binding affinity of BodoCSP4 to the selected volatiles, using 1-N-phenyl-naphthylamine (1-NPN) as the fluorescent probe. […] Both 1-NPN and the volatile compounds were diluted in chromatographic-grade methanol to make 1 mM stock solutions. Recombinant BodoCSP4 was dissolved in 20 mM Tris-HCl (pH 7.4) and diluted to a 2 µM stock solution.

[1] = tested on: B. odoriphaga male adults; assay: Y-tube olfactometer assay after dsRNA injection; format: in vivo, Bradysia odoriphaga; conditions: for effect of silencing of BodoCSP4 on behavioral response of male adults to the ligand: RNAi, Y-tube olfaction assays; for behavioral response (attraction to ligand vs hexane control): n = 60, chi-square test
Description: The primer pairs dsCSP4 and dsGFP, containing the T7 promoter sequence, are listed in Table 1, and the T7 RiboMAX ™ Express RNAi System was used to synthesize double stranded RNAs (dsRNAs). The dsRNAs were microinjected into 3-day-old pupae of B. odoriphaga, and newly eclosed male adults were selected for dsRNA extraction and behavioral assays as previously described ([Yang et al., 2021b]; [Zhang et al., 2021]). According to the fluorescence binding results, after BodoCSP4 was silenced, a Y-tube olfactometer was used to assess the behavioral responses of B. odoriphaga male adults to the ligands diallyl disulfide, methyl allyl disulfide, and n-heptadecane as described in our previous report ([Yang et al., 2019]). In brief, a 10-μL solution of diallyl disulfide, methyl allyl disulfide, or n-heptadecane in hexane was placed on a strip (4 × 40 mm) of filter paper; after 10 s, the strip was placed at the end of one of the two Y-tube arms. As a control, a hexane-treated filter paper strip was placed at the end of the other arm. Two streams of clean air were passed through the Y-tube arms to the base, and one adult male that had been previously injected (at the pupal stage, 12 h before emergence) with dsBodoCSP4 or dsGFP was placed in the base of the Y-tube. If the male adult moved at least half way up one of the Y-tube arms, the result was recorded and considered an indication of attraction or repulsion depending on which arm was selected. Each of six treatment combinations (3 host plant volatiles with controls and dsBodoCSP4 or dsGFP microinjected adults) are represented by 60 replicate assays.
All RT-qPCR experiments were analyzed using one-way ANOVA followed by Tukey-HSD tests with SPSS 20.0 software. All RT-qPCR experiments were conducted using three independent biological replicates. In each of the six Y-tube olfactometer assays (3 ligands and controls without ligand × two types of microinjected B. odoriphaga adult males), behavioral responses to filter paper with or without ligand were analyzed by a chi-square test (χ 2).

[2] = tested on: antennae of both male and female B. odoriphaga; parameters: method as in Yang et al., 2019; conditions: ref Yang et al., 2019; cited from earlier work
[3] = tested on: B. odoriphaga male adults; parameters: method as in Zhang et al. (2021); conditions: ref Zhang et al. (2021); cited from earlier work
[4] = tested on: B. odoriphaga male adults; parameters: method as in Li H. J. et al., 2007; conditions: extract from the abdomen of B. odoriphaga females; ref Li H. J. et al., 2007; cited from earlier work
[5] = recombinant BodoCSP4, Supplemental Table 2, Ki, read-out: Ki
[6] = recombinant BodoCSP4, Supplemental Table 2, IC50, read-out: IC50
[7] = Ki, recombinant BodoCSP4, Supplemental Table 2, Ki
[8] = recombinant BodoCSP4, competitive with 1-NPN, values in text, read-out: binding affinity (Ki)

recombinant BodoCSP4, sequence (A0A2S0X9L0 entry or part of it): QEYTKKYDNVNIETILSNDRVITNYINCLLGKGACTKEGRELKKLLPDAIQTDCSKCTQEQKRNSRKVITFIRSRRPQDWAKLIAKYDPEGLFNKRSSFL

SMILES | IC50 (recombinant BodoCSP4) | Ki (recombinant BodoCSP4; [5]) | IC50 (recombinant BodoCSP4; [6]) | further results
CC12CCC(CC1)C(C)(C)O2 [1,8-Cineole] | > 50 µM | > 50 µM |  | 
CCCCCCCCCCCC=O [Dodecyl aldehyde] |  | > 50 µM | > 50 µM | 
CCCCC(C)=O [2-Hexanone] | > 50 µM |  |  | Ki (recombinant BodoCSP4; [7]): > 50 µM
Cc1ccc(C(C)C)cc1O [Carvaceol] |  | > 50 µM | > 50 µM | 
CCCCCCCCCCCCCC [Tetradecane] |  | > 50 µM | > 50 µM | 
CC(=O)c1ccccc1 [Acetophenone] | > 50 µM | > 50 µM |  | 
CCCCOC(=O)CCC(C)=O [Butyl levulinate] |  | > 50 µM | > 50 µM | 
CCCCC=O [Valeric aldehyde] |  | > 50 µM | > 50 µM | 
C=CCSSC [Methyl allyl disulfide] |  |  |  | Ki (recombinant BodoCSP4; [8]): 5.71 µM and < 10 µM; effect of silencing of BodoCSP4 on behavioral response of male adults to the ligand [1]: did not decrease; behavioral response (attraction to ligand vs hexane control) ([1]; dsBodoCSP4-treated adult males): attracted; behavioral response (attraction to ligand vs hexane control) ([1]; dsGFP-treated adult males): attracted; electrophysiological responses from the antennae [2]: strong electrophysiological responses; effect of silencing of BodoCSP1 on behavioral response of male adults [3]: reduced the behavioral response
CCCCCCCCCCCCCCCCC [n-Heptadecane] |  |  |  | Ki (recombinant BodoCSP4; [8]): 6.85 µM and < 10 µM; effect of silencing of BodoCSP4 on behavioral response of male adults to the ligand [1]: significantly decreased; behavioral response (attraction to ligand vs hexane control) ([1]; dsBodoCSP4-treated adult males): no olfactory attraction; behavioral response (attraction to ligand vs hexane control) ([1]; dsGFP-treated adult males): attracted; behavioral response in male adults [4]: elicits a behavioral response
CCCCCCC=O [heptanal] | > 50 µM | > 50 µM |  | 
CC(=O)/C=C/C1=C(C)CCCC1(C)C [Beta-Ionone] | > 50 µM |  |  | Ki (recombinant BodoCSP4; [7]): > 50 µM
C=CC(C)=CCC=C(C)C [Ocimene] |  | > 50 µM | > 50 µM | 
CCCCCCCCCC=O [Decanal] |  | > 50 µM | > 50 µM | 
O=Cc1ccccc1 [benzaldehyde] | > 50 µM |  |  | Ki (recombinant BodoCSP4; [7]): > 50 µM
C=C(C)[C@H]1CC=C(C)CC1 [(R)-(+)-Limonene] |  | > 50 µM | > 50 µM | 

SMILES | IC50 (recombinant BodoCSP4) | Ki (recombinant BodoCSP4; [5]) | IC50 (recombinant BodoCSP4; [6]) | further results
C=C1CC/C=C(/C)CC[C@@H]2[C@@H]1CC2(C)C [ß-caryophyllene] |  | > 50 µM | > 50 µM | 
CCCCCCCCC=O [nonanal] |  | > 50 µM | > 50 µM | 
CC(C)=CCCC(C)CCO (centres unmarked) [Citronellol] |  | > 50 µM | > 50 µM | 
CCCCCCCCCCCC [Dodecane] |  | > 50 µM | > 50 µM | 
C/C1=C\CC/C(C)=C/CC(C)(C)/C=C/C1 [a-Humulene] |  | > 50 µM | > 50 µM | 
CCCCCCCCCCCCCCCC [Hexadecane] |  | > 50 µM | > 50 µM | 
c1ccc2[nH]ccc2c1 [(H-11)indole] |  | > 50 µM | > 50 µM | 
CC/C=C\CCO [cis-3-Hexen-1-ol] | > 50 µM |  |  | Ki (recombinant BodoCSP4; [7]): > 50 µM
COC(=O)Cc1ccccc1 [Methyl phenylacetate] | > 50 µM |  |  | Ki (recombinant BodoCSP4; [7]): > 50 µM
C=C1CCC2CC1C2(C)C (centres unmarked) [ß-pinene] |  | > 50 µM | > 50 µM | 
C=CC(C)(O)CCC=C(C)C (centres unmarked) [Linalool] | > 50 µM |  |  | Ki (recombinant BodoCSP4; [7]): > 50 µM
CCCCCCCCC [Nonane] |  | > 50 µM | > 50 µM | 
CCCCCCCC=O [Octanal] |  | > 50 µM | > 50 µM | 
c1ccc(Nc2cccc3ccccc23)cc1 [1-NPN, N-phenyl-1-naphthylamine, reference compound] |  |  |  | Kd (recombinant BodoCSP4): 1080 nM
C=CC(=O)OCCCC [Butyl Acrylate] | > 50 µM |  |  | Ki (recombinant BodoCSP4; [7]): > 50 µM
C=CCSSCC=C [Diallyl disulfide] |  |  |  | Ki (recombinant BodoCSP4; binding affinity (Ki), recombinant BodoCSP4, competitive with 1-NPN, values in text): 5.71 µM and < 10 µM; effect of silencing of BodoCSP4 on behavioral response of male adults to the ligand [1]: significantly decreased; behavioral response (attraction to ligand vs hexane control) ([1]; dsBodoCSP4-treated adult males): no olfactory attraction; behavioral response (attraction to ligand vs hexane control) ([1]; dsGFP-treated adult males): attracted; electrophysiological responses from the antennae [2]: strong electrophysiological responses; effect of silencing of BodoCSP1 on behavioral response of male adults [3]: reduced the behavioral response

Reference: PMC9552003, “Chemosensory protein 4 is required for Bradysia odoriphaga to be olfactory attracted to sulfur compounds released from Chinese chives” (Frontiers in Physiology, 2022)
